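How tested: cells in 96-well plates exposed to compound for 48 hours at five concentrations. TGI: total growth inhibition.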
How the values were obtained:
Assay in all cases: NCI-60 cell line screen, 48 h
IGROV1 ovarian = tested on: IGROV1 ovarian
NCI/ADR-RES ovarian = tested on: NCI/ADR-RES ovarian
MALME-3M melanoma = tested on: MALME-3M melanoma
SN12C renal = tested on: SN12C renal
MDA-MB-435 = tested on: MDA-MB-435
MDA-N = tested on: MDA-N
SNB-19 CNS = tested on: SNB-19 CNS
A549 NSCLC = tested on: A549 NSCLC
PC-3 prostate = tested on: PC-3 prostate
CAKI-1 renal = tested on: CAKI-1 renal
LOX IMVI melanoma = tested on: LOX IMVI melanoma
NCI-H226 lung = tested on: NCI-H226 lung
BT-549 breast = tested on: BT-549 breast
OVCAR-4 ovarian = tested on: OVCAR-4 ovarian
A498 renal = tested on: A498 renal
KM12 colon = tested on: KM12 colon
UO-31 renal = tested on: UO-31 renal
HOP-62 NSCLC = tested on: HOP-62 NSCLC
SK-MEL-2 melanoma = tested on: SK-MEL-2 melanoma
NCI-H460 lung = tested on: NCI-H460 lung
786-0 renal = tested on: 786-0 renal
OVCAR-3 ovarian = tested on: OVCAR-3 ovarian
SK-MEL-28 melanoma = tested on: SK-MEL-28 melanoma
OVCAR-8 ovarian = tested on: OVCAR-8 ovarian
RPMI-8226 leukemia = tested on: RPMI-8226 leukemia
SK-OV-3 ovarian = tested on: SK-OV-3 ovarian
M14 melanoma = tested on: M14 melanoma
K-562 leukemia = tested on: K-562 leukemia
UACC-257 melanoma = tested on: UACC-257 melanoma
OVCAR-5 ovarian = tested on: OVCAR-5 ovarian
NCI-H522 lung = tested on: NCI-H522 lung
HCT-116 colon = tested on: HCT-116 colon
ACHN renal = tested on: ACHN renal
SR leukemia = tested on: SR leukemia
MDA-MB-231 breast = tested on: MDA-MB-231 breast
HOP-92 NSCLC = tested on: HOP-92 NSCLC
EKVX NSCLC = tested on: EKVX NSCLC
MOLT-4 leukemia = tested on: MOLT-4 leukemia
HT29 colon = tested on: HT29 colon
SW-620 colon = tested on: SW-620 colon
NCI-H23 lung = tested on: NCI-H23 lung
COLO 205 colon = tested on: COLO 205 colon
CCRF-CEM leukemia = tested on: CCRF-CEM leukemia
SNB-75 CNS = tested on: SNB-75 CNS
HL-60(TB) leukemia = tested on: HL-60(TB) leukemia
HCC-2998 colon = tested on: HCC-2998 colon
TK-10 renal = tested on: TK-10 renal
SF-295 CNS = tested on: SF-295 CNS
U251 CNS = tested on: U251 CNS
SK-MEL-5 melanoma = tested on: SK-MEL-5 melanoma
MCF7 breast = tested on: MCF7 breast
UACC-62 melanoma = tested on: UACC-62 melanoma
HCT-15 colon = tested on: HCT-15 colon
HS 578T breast = tested on: HS 578T breast
SF-268 CNS = tested on: SF-268 CNS
DU-145 prostate = tested on: DU-145 prostate
RXF 393 renal = tested on: RXF 393 renal
T-47D breast = tested on: T-47D breast

Measured: TGI

Cc1ccc(NC(=O)c2cc(S(=O)(=O)Nc3n[nH]c(=O)[nH]3)c(SSc3cc(Cl)c(C(=O)Nc4ccc(C)cc4)cc3S(=O)(=O)Nc3n[nH]c(=O)[nH]3)cc2Cl)cc1
> 100 µM: IGROV1 ovarian | NCI/ADR-RES ovarian | MALME-3M melanoma | SN12C renal | MDA-MB-435 | MDA-N | SNB-19 CNS | A549 NSCLC | PC-3 prostate | CAKI-1 renal | LOX IMVI melanoma | NCI-H226 lung | BT-549 breast | OVCAR-4 ovarian | A498 renal | KM12 colon | UO-31 renal | HOP-62 NSCLC | SK-MEL-2 melanoma | NCI-H460 lung | 786-0 renal | OVCAR-3 ovarian | SK-MEL-28 melanoma | OVCAR-8 ovarian | RPMI-8226 leukemia | SK-OV-3 ovarian | M14 melanoma | K-562 leukemia | UACC-257 melanoma | OVCAR-5 ovarian | NCI-H522 lung | HCT-116 colon | ACHN renal | SR leukemia | MDA-MB-231 breast | HOP-92 NSCLC | EKVX NSCLC | MOLT-4 leukemia | HT29 colon | SW-620 colon | NCI-H23 lung | COLO 205 colon | CCRF-CEM leukemia | SNB-75 CNS | HL-60(TB) leukemia | HCC-2998 colon | TK-10 renal | SF-295 CNS | U251 CNS | SK-MEL-5 melanoma | MCF7 breast | UACC-62 melanoma | HCT-15 colon | HS 578T breast | SF-268 CNS

Nc1nc(O)c2ncn([C@H]3CC[C@@H](CO)O3)c2n1
> 100 µM: IGROV1 ovarian | NCI/ADR-RES ovarian | MALME-3M melanoma | SN12C renal | MDA-MB-435 | MDA-N | SNB-19 CNS | PC-3 prostate | CAKI-1 renal | LOX IMVI melanoma | NCI-H226 lung | BT-549 breast | OVCAR-4 ovarian | A498 renal | KM12 colon | UO-31 renal | HOP-62 NSCLC | SK-MEL-2 melanoma | NCI-H460 lung | OVCAR-3 ovarian | DU-145 prostate | SK-MEL-28 melanoma | OVCAR-8 ovarian | RPMI-8226 leukemia | SK-OV-3 ovarian | M14 melanoma | K-562 leukemia | UACC-257 melanoma | OVCAR-5 ovarian | HCT-116 colon | SR leukemia | HOP-92 NSCLC | RXF 393 renal | MOLT-4 leukemia | HT29 colon | T-47D breast | SW-620 colon | NCI-H23 lung | COLO 205 colon | CCRF-CEM leukemia | SNB-75 CNS | TK-10 renal | SF-295 CNS | U251 CNS | SK-MEL-5 melanoma | MCF7 breast | UACC-62 melanoma | HCT-15 colon | HS 578T breast

Reference: PubChem BioAssay (NCI)
